From the supplement of paper PMC10307832 come the findings set out here.

What all share (assay): relative viability (nuclei count vs DMSO), 5 days (fraction); higher = more cells survive
Compound in assay [1]: CC1=C(CC(=O)O)c2cc(F)ccc2/C1=C\c1ccc([S+](C)[O-])cc1 [Sulindac] + CCNC(=O)c1noc(-c2cc(C(C)C)c(O)cc2O)c1-c1ccc(CN2CCOCC2)cc1 [Luminespib] (partner 0.01 µM)
The procedure, abridged:
(§1)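 For relative viability, nuclei counts in treated wells were divided by those in vehicle wells. Lung cancer cell lines had been pin-tool dosed in 1536-well plates the day after seeding and cultured for 5 days, then fixed and stained in one step (final 0.05% Triton X-100, 1% formaldehyde, 1 ug/ml Hoechst) and imaged at 4×. Doses were one drug alone or a fixed anchor-drug dose plus five library-drug doses (not always all listed) in √10 steps, and values are duplicate-plate medians.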

Compound in assay [2]: O=c1[nH]cc(F)c(=O)[nH]1 [5-Fluorouracil] + CC(C)C[C@H](NC(=O)[C@H](Cc1ccccc1)NC(=O)c1cnccn1)B(O)O [Bortezomib] (partner 0.002 µM)
The procedure, abridged:
as §1

Compound in assay [3]: CN[C@@H]1C[C@H]2O[C@@](C)([C@@H]1OC)n1c3ccccc3c3c4c(c5c6ccccc6n2c5c31)C(=O)NC4 [Staurosporine] + Nc1ncn([C@H]2C[C@H](O)[C@@H](CO)O2)c(=O)n1 [Decitabine] (partner 2 µM)
The method in brief: as §1

Compound in assay [4]: CN[C@@H]1C[C@H]2O[C@@](C)([C@@H]1OC)n1c3ccccc3c3c4c(c5c6ccccc6n2c5c31)C(=O)NC4 [Staurosporine] + O=C(CCCCCCC(=O)Nc1ccccc1)NO [Vorinostat] (partner 1 µM)
The procedure, abridged:
as §1

For HCC-44, the relative viability in assay [1] (first compound 0.08 µM) was found to be 0.969; in assay [1] (first compound 0.253 µM), 1.08; in assay [1] (first compound 2.53 µM), 1.05; in assay [1] (first compound 8 µM) it was 1.25; in assay [2] (first compound 0.02 µM), 0.931; in assay [2] (first compound 0.2 µM), 0.84. In addition, the relative viability in assay [2] (first compound 0.6325 µM) worked out at 0.601; in assay [2] (first compound 2 µM), 0.35; in assay [3] (first compound 0.005 µM), 0.937; in assay [3] (first compound 0.05 µM), 0.661; in assay [3] (first compound 0.1581 µM), 0.302; in assay [3] (first compound 0.5 µM), 0.275. Further, the relative viability in assay [4] (first compound 0.005 µM) was determined as 1.1; in assay [4] (first compound 0.05 µM) it was 0.517; in assay [4] (first compound 0.1581 µM), 0.27; in assay [4] (first compound 0.5 µM), 0.2.
Take HCC-78: the relative viability worked out at 0.471 in assay [2] (first compound 0.02 µM); 0.546 in assay [2] (first compound 0.2 µM); 0.525 in assay [2] (first compound 0.6325 µM); 0.274 in assay [2] (first compound 2 µM); 0.76 in assay [3] (first compound 0.005 µM); 0.617 in assay [3] (first compound 0.01581 µM). The relative viability in assay [3] (first compound 0.05 µM) is 0.627; in assay [3] (first compound 0.1581 µM), 0.444; in assay [3] (first compound 0.5 µM), 0.49; in assay [4] (first compound 0.005 µM), 0.475; in assay [4] (first compound 0.01581 µM), 0.377; in assay [4] (first compound 0.05 µM), 0.388. Further, the results for the relative viability in assay [4] (first compound 0.1581 µM) and in assay [4] (first compound 0.5 µM) were 0.367 and 0.279, respectively.
For the cell line HCC-366, the relative viability in assay [2] (first compound 0.02 µM) came to 1.08; in assay [2] (first compound 0.2 µM), 0.946; in assay [2] (first compound 0.6325 µM) it was 0.523; in assay [2] (first compound 2 µM) it was 0.0524; in assay [3] (first compound 0.005 µM), 0.348; in assay [3] (first compound 0.05 µM) it was 0.116. In addition, the relative viability worked out at 0.0285 in assay [3] (first compound 0.1581 µM); 0.0403 in assay [3] (first compound 0.5 µM); 0.331 in assay [4] (first compound 0.005 µM); 0.0353 in assay [4] (first compound 0.05 µM); 0.0261 in assay [4] (first compound 0.1581 µM); 0.0187 in assay [4] (first compound 0.5 µM).
As to IA-LM, the relative viability in assay [2] (first compound 0.02 µM) came to 0.766; in assay [2] (first compound 0.2 µM) it was 0.327; in assay [2] (first compound 0.6325 µM) it was 0.193; in assay [2] (first compound 2 µM), 0.141; in assay [4] (first compound 0.005 µM), 0.732; in assay [4] (first compound 0.01581 µM), 0.312. Moreover, the relative viability in assay [4] (first compound 0.05 µM) was 0.0781; in assay [4] (first compound 0.1581 µM), 0.0987; in assay [4] (first compound 0.5 µM) it was 0.105.
On to LK-2, for which the relative viability amounted to 0.2 in assay [1] (first compound 0.08 µM); 0.18 in assay [1] (first compound 0.253 µM); 0.167 in assay [1] (first compound 8 µM); 0.327 in assay [3] (first compound 0.005 µM); 0.173 in assay [3] (first compound 0.01581 µM); 0.369 in assay [3] (first compound 0.05 µM). The relative viability in assay [3] (first compound 0.1581 µM) was determined as 0.0995; in assay [3] (first compound 0.5 µM), 0.0618; in assay [4] (first compound 0.005 µM), 0.19; in assay [4] (first compound 0.01581 µM), 0.0826; in assay [4] (first compound 0.05 µM) it was 0.246; in assay [4] (first compound 0.1581 µM) it was 0.0977. Besides, the relative viability in assay [4] (first compound 0.5 µM) came out at 0.0667.
On to NCI-H358, for which the relative viability stood at 0.202 in assay [1] (first compound 0.08 µM); 0.384 in assay [1] (first compound 0.253 µM); 0.46 in assay [1] (first compound 2.53 µM); 0.359 in assay [1] (first compound 8 µM); 0.244 in assay [3] (first compound 0.005 µM); 0.213 in assay [3] (first compound 0.01581 µM). For the same cell line, the relative viability was 0.121 in assay [3] (first compound 0.05 µM); 0.0796 in assay [3] (first compound 0.1581 µM); 0.0666 in assay [3] (first compound 0.5 µM); 0.165 in assay [4] (first compound 0.01581 µM); 0.0628 in assay [4] (first compound 0.05 µM); 0.0625 in assay [4] (first compound 0.1581 µM). Also, in assay [4] (first compound 0.5 µM), the relative viability is 0.0709.
Turning to NCI-H522, the relative viability in assay [1] (first compound 0.08 µM) was 1.15; in assay [1] (first compound 0.253 µM), 1.01; in assay [1] (first compound 0.8 µM) it was 1.09; in assay [1] (first compound 2.53 µM), 1.2; in assay [1] (first compound 8 µM) it was 1.22; in assay [3] (first compound 0.005 µM), 0.502. Further, the relative viability in assay [3] (first compound 0.01581 µM) was determined as 0.678; in assay [3] (first compound 0.05 µM) it was 0.643; in assay [3] (first compound 0.1581 µM) it was 0.617; in assay [3] (first compound 0.5 µM), 0.564; in assay [4] (first compound 0.005 µM) it was 0.856; in assay [4] (first compound 0.01581 µM) it was 0.452. Further, the relative viability in assay [4] (first compound 0.05 µM) stood at 0.75; in assay [4] (first compound 0.1581 µM), 0.397; in assay [4] (first compound 0.5 µM), 0.484.
For NCI-H1299, the relative viability is 1.07 in assay [2] (first compound 0.02 µM), 1.05 in assay [2] (first compound 0.2 µM), 1.04 in assay [2] (first compound 0.6325 µM) and 0.959 in assay [2] (first compound 2 µM).
With NCI-H1395, the relative viability in assay [1] (first compound 0.08 µM) came to 0.713; in assay [1] (first compound 0.253 µM) it was 0.68; in assay [1] (first compound 0.8 µM), 0.611; in assay [1] (first compound 2.53 µM), 0.709; in assay [1] (first compound 8 µM), 0.643; in assay [3] (first compound 0.005 µM) it was 0.76. Besides, the relative viability in assay [3] (first compound 0.01581 µM) is 0.596; in assay [3] (first compound 0.05 µM), 0.454; in assay [3] (first compound 0.1581 µM), 0.314; in assay [3] (first compound 0.5 µM), 0.27; in assay [4] (first compound 0.005 µM), 0.447; in assay [4] (first compound 0.01581 µM) it was 0.264. In addition, the relative viability in assay [4] (first compound 0.05 µM) was found to be 0.288; in assay [4] (first compound 0.1581 µM), 0.299; in assay [4] (first compound 0.5 µM), 0.228.
Turning to NCI-H1563, the relative viability in assay [1] (first compound 0.08 µM) was found to be 0.449; in assay [1] (first compound 0.253 µM), 0.553; in assay [1] (first compound 0.8 µM), 0.535; in assay [1] (first compound 2.53 µM), 0.551; in assay [1] (first compound 8 µM), 0.498; in assay [2] (first compound 0.02 µM), 0.895. Besides, the values for the relative viability in assay [2] (first compound 0.2 µM), in assay [2] (first compound 0.6325 µM) and in assay [2] (first compound 2 µM) were 0.859, 0.841 and 0.718, respectively.
As to NCI-H1623, the relative viability in assay [1] (first compound 0.08 µM) was 0.424; in assay [1] (first compound 0.253 µM), 0.459; in assay [1] (first compound 0.8 µM) it was 0.51; in assay [1] (first compound 2.53 µM), 0.462; in assay [1] (first compound 8 µM) it was 0.507.
